Measurements as given in patent US20220017489A1, “SOLID DISPERSIONS FOR TREATMENT OF CANCER” (Celgene Corporation, priority 2018, published 2022).
Converted amounts (≈) assume the structure as drawn. Where two headings read alike, the source gives them in different places.

Assays:
[1] = Amorphous solid dispersion screen for Compound 1A: HT-XRPD after accelerated aging conditions (40° C./70% RH, 4 weeks); format: physicochemical; conditions: HT-XRPD form after accelerated aging conditions, 4 weeks at 40° C. and 70% RH
Protocol: The plates were mounted on a Bruker General Area Detector Diffraction System (GADDS) equipped with a VÅNTEC-500 gas area detector corrected for intensity and geometric variations. The calibration of the measurement accuracy (peaks position) was performed using NIST SRM1976 standard (Corundum).
No background subtraction or curve smoothing was applied to the XRPD patterns.

[2] = Solubility determination of amorphous solid dispersions of Compound 1A in water, SIF and SGF at 37° C.; format: physicochemical
Protocol: For the solubility determination, suspensions of Compound 1A and dispersions were prepared in 3 mL aqueous medium. […] Samples were taken after 0.5, 1 and 2 hours, filtered over a PTFE spin filter and the concentration of Enasidenib in solution was determined by HPLC analysis. In the next sections the solubility results are discussed per aqueous media.
The concentration of API in solution was determined by HPLC analysis after 0.5, 1 and 2 hours.

[3] = Quantitative (24-hour shake flask) thermodynamic solubility of Compound 1A in organic solvents and water; format: physicochemical; conditions: room temperature
Protocol: The solubility of Compound 1A was quantitatively assessed in 10 different organic solvents and water. Slurries were prepared by mixing 30 mg of Compound 1A with an appropriate solvent volume. A stirring bean was added and the suspensions were stirring (500 rpm) at room temperature for 24 hours. An aliquot of the suspension was transferred into a spin filter (nylon, 0.2 μm). The solubility of the filtered solution was determined by HPLC.

physchem = conditions: thermodynamic from solid
[4] = 37° C.
[5] = Anti-precipitant screening of Compound 1A by solvent shift method in SIF; format: physicochemical; conditions: control experiment, crystalline solid, no polymer
Protocol: The anti-precipitant screen by the solvent shift method was used for discovering polymers that can maintain the supersaturated state of Compound 1A in solution. Based on the results of this screen, polymers were selected for the development of the ASD.
The concentration of free base in solution was determined by HPLC analysis.

[6] = Kinetic solubility of Compound 1A in SIF and SGF (DMSO solutions added to medium); format: physicochemical; conditions: 80 μL of 60, 30, 15 and 5 mg/mL DMSO solutions added to 4 mL
Protocol: Prior to the solvent shift experiments, the kinetic solubility of Compound 1A was tested in simulated intestinal fluid (SIF) and simulated gastric fluid (SGF) in order to choose the Compound 1A concentration suitable for the solvent shift experiments. Four different Compound 1A solutions (in DMSO) were prepared with concentrations of 60, 30, 15 and 5 mg/mL. Subsequently, 80 μL of these solutions were added to 4 mL of SGF and to 4 mL of SIF.
For the solvent shift experiments in SIF, Compound 1A concentration in DMSO of 5 mg/mL was used.

[7] = thermodynamic from solid, Water

## CC(C)(O)CNc1nc(Nc2ccnc(C(F)(F)F)c2)nc(-c2cccc(C(F)(F)F)n2)n1 [ASD102]
[1]
  XRPD AAC: Form 1
[2]; SGF, 0.5 hours
  Concentration API: 20800 ng/mL
[2]; SGF, 1 hour
  Concentration API: 13000 ng/mL
[2]; SGF, 2 hours
  Concentration API: 10900 ng/mL
[2]; SIF, 0.5 hours
  Concentration API: <100 ng/mL
[2]; SIF, 1 hour
  Concentration API: <100 ng/mL
[2]; SIF, 2 hours
  Concentration API: <100 ng/mL
[2]; Water, 0.5 hours
  Concentration API: <100 ng/mL
[2]; Water, 1 hour
  Concentration API: <100 ng/mL
[2]; Water, 2 hours
  Concentration API: <100 ng/mL

## CC(C)(O)CNc1nc(Nc2ccnc(C(F)(F)F)c2)nc(-c2cccc(C(F)(F)F)n2)n1 [Compound 1A, 2-methyl-1-[(4-[6-(trifluoromethyl)pyridin-2-yl]-6-{[2-(trifluoromethyl)pyridin-4-yl]amino}-1,3,5-triazin-2-yl)amino]propan-2-ol]
[3]; Water
  solubility: practically insoluble
[3]; organic solvent or mixture, thermodynamic from solid, 1,4-Dioxane
  solubility at 24 h: 69200 µg/mL (≈ 146 mM)
[3]; organic solvent or mixture, thermodynamic from solid, 2-Propanol
  solubility at 24 h: 229000 µg/mL (≈ 484 mM)
[3]; organic solvent or mixture, thermodynamic from solid, Acetone
  solubility at 24 h: 209000 µg/mL (≈ 442 mM)
[3]; organic solvent or mixture, thermodynamic from solid, Acetonitrile
  solubility at 24 h: 14700 µg/mL (≈ 31.1 mM)
[3]; organic solvent or mixture, thermodynamic from solid, Chloroform
  solubility at 24 h: 70600 µg/mL (≈ 149 mM)
[3]; organic solvent or mixture, thermodynamic from solid, Ethanol
  solubility at 24 h: > 408000 µg/mL
[3]; organic solvent or mixture, thermodynamic from solid, Ethyl acetate
  solubility at 24 h: 127000 µg/mL (≈ 268 mM)
[3]; organic solvent or mixture, thermodynamic from solid, Methanol
  solubility at 24 h: > 463000 µg/mL
[3]; organic solvent or mixture, thermodynamic from solid, Tetrahydrofuran
  solubility at 24 h: > 429000 µg/mL
[3]; [7]
  solubility at 24 h: < 100 µg/mL
physchem; 1,4-dioxane, organic solvent or mixture
  solubility at 24 h: 400 µg/mL (≈ 0.845 mM)
physchem; 2-propanol, organic solvent or mixture
  solubility at 24 h: 1400 µg/mL (≈ 2.96 mM)
physchem; acetone, organic solvent or mixture
  solubility at 24 h: 900 µg/mL (≈ 1.9 mM)
physchem; acetonitrile, organic solvent or mixture
  solubility at 24 h: 500 µg/mL (≈ 1.06 mM)
physchem; chloroform, organic solvent or mixture
  solubility at 24 h: 200 µg/mL (≈ 0.422 mM)
physchem; ethanol, organic solvent or mixture
  solubility at 24 h: 7300 µg/mL (≈ 15.4 mM)
physchem; ethyl acetate, organic solvent or mixture
  solubility at 24 h: 200 µg/mL (≈ 0.422 mM)
physchem; methanol, organic solvent or mixture
  solubility at 24 h: 35600 µg/mL (≈ 75.2 mM)
physchem; tetrahydrofuran, organic solvent or mixture
  solubility at 24 h: 1800 µg/mL (≈ 3.8 mM)
physchem; water
  solubility at 24 h: < 100 µg/mL
[2]; SGF, 0.5 hours
  Concentration API: ~80000 ng/mL
[2]; SGF, 0.5 hours, listed as SM
  Concentration API: 75800 ng/mL
[2]; SGF, 1 hour
  Concentration API: 41300 ng/mL
[2]; SGF, 2 hours
  Concentration API: about 20 μg/mL
[2]; SGF, 2 hours, listed as SM
  Concentration API: 19400 ng/mL
[2]; SIF, 0.5 hours
  Concentration API: 300 ng/mL
[2]; SIF, 1 hour
  Concentration API: <100 ng/mL
[2]; SIF, 2 hours
  Concentration API: <100 ng/mL
[2]; Water, 0.5 hours, listed as SM
  Concentration API: 1000 ng/mL
[2]; Water, 1 hour
  Concentration API: 400 ng/mL
[2]; Water, 2 hours
  Concentration API: <100 ng/mL
[2]; [7]
  solubility: ~1 µg/mL (≈ 0.00211 mM)
[4]; SGF
  Concentration API (μg/mL) 0.5 h: 21.9 µg/mL
  pH 0.5 h: 1.24
  Concentration API (μg/mL) 1 h: 17.2 µg/mL
  Concentration API (μg/mL) 2 h: 14.6 µg/mL
  pH 2 h: 1.23
[4]; SIF
  Concentration API (μg/mL) 0.5 h: 0.4 µg/mL
  pH 0.5 h: 6.60
  Concentration API (μg/mL) 1 h: <0.1 µg/mL
  Concentration API (μg/mL) 2 h: <0.1 µg/mL
  pH 2 h: 6.44
[4]; Water
  Concentration API (μg/mL) 0.5 h: 0.7 µg/mL
  pH 0.5 h: 2.64
  Concentration API (μg/mL) 1 h: 0.4 µg/mL
  Concentration API (μg/mL) 2 h: 0.3 µg/mL
  pH 2 h: 2.15
[5]
  Solubility of crystalline Compound 1A in SIF: practically insoluble
[6]; SGF
  Kinetic solubility (precipitation): precipitation was observed when using the solution with the highest concentration
[6]; SIF
  Kinetic solubility (precipitation): precipitated using all four concentrations
